Source: patent US8471005B2 (Cephalon, Inc., priority 2008, dated 2013)
Read-outs that look alike come from different tables or passages of the source.

Tests used:
JAK2 = biological target: T1, JAK2 (Homo sapiens, UniProt O60674); assay: Recombinant Human JAK2 Kinase Assay (TRF); format: biochemical; details: read-out: JAK2 Potency
T1 construct: host or cells: baculovirus expression system
How it was run: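 TRF read-out: Eu-N1 PY100 anti-phosphotyrosine antibody detects product. Enzyme is baculovirus-expressed JAK2 at 15 ng/ml; substrate is a biotinyl 15-mer peptide bound to Neutravidin-coated wells. Buffer 20 mM HEPES pH 7.2, 0.2 μM ATP, 1 mM MnCl2, 0.1% BSA, 2.5% DMSO final; 20 min, RT.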

ALK = biological target: T2, ALK (Homo sapiens, UniProt Q9UM73); assay: ALK Kinase Assay (ELISA/TRF, PLC-γ substrate); format: biochemical; details: read-out: ALK Potency
T2 construct: host or cells: baculovirus expression system
T2 sequence (Q9UM73 19-1620): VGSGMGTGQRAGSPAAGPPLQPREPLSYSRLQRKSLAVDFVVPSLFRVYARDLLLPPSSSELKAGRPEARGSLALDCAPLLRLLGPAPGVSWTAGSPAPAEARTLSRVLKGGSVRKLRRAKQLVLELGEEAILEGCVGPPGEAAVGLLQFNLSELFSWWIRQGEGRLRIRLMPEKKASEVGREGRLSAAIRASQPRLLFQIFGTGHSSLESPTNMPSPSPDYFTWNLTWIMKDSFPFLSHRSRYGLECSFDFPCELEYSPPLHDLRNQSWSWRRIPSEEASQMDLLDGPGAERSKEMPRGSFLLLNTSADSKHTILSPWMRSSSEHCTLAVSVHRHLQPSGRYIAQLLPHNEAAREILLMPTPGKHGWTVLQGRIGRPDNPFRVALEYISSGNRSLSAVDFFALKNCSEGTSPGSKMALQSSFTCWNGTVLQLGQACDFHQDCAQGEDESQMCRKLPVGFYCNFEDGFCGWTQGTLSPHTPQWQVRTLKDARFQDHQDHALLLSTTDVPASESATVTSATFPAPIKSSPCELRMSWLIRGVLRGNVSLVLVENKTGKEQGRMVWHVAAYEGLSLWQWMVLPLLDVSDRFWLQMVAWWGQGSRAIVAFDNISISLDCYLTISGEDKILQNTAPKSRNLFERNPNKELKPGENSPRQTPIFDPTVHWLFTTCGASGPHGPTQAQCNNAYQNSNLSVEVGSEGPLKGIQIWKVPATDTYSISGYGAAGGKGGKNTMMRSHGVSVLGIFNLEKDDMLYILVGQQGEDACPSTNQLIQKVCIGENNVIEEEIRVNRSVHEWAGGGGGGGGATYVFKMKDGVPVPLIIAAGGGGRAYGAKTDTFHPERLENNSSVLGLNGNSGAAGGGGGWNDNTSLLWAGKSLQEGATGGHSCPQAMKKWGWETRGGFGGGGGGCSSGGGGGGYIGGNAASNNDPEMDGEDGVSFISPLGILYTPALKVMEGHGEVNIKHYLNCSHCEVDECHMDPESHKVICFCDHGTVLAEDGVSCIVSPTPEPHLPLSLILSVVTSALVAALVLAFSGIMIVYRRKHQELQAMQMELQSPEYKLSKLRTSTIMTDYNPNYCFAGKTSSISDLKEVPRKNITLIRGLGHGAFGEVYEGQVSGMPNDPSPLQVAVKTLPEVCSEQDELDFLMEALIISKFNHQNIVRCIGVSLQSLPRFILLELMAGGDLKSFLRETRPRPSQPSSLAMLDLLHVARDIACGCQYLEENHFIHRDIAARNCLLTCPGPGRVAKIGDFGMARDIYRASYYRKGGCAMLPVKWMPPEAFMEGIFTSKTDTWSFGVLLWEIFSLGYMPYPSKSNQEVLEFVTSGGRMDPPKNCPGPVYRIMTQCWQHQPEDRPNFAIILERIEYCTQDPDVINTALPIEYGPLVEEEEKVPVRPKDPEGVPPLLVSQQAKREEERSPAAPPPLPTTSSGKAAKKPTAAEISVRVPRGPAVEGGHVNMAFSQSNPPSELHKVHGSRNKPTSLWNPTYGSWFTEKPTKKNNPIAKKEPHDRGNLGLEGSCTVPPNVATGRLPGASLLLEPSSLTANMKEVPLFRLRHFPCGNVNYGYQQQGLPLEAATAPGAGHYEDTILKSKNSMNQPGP
How it was run: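 Time-resolved fluorescence ELISA using Eu-N1 PT66 antibody to detect phosphorylated PLC-γ (coated at 10 μg/mL). Enzyme at 30 ng/ml ALK; 15 min incubation, 37° C.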

[1] = JAK2 kinase inhibition, 0.2 μM ATP
[2] = ALK kinase inhibition, 1 μM ATP

T1 sequence (O60674 whole entry): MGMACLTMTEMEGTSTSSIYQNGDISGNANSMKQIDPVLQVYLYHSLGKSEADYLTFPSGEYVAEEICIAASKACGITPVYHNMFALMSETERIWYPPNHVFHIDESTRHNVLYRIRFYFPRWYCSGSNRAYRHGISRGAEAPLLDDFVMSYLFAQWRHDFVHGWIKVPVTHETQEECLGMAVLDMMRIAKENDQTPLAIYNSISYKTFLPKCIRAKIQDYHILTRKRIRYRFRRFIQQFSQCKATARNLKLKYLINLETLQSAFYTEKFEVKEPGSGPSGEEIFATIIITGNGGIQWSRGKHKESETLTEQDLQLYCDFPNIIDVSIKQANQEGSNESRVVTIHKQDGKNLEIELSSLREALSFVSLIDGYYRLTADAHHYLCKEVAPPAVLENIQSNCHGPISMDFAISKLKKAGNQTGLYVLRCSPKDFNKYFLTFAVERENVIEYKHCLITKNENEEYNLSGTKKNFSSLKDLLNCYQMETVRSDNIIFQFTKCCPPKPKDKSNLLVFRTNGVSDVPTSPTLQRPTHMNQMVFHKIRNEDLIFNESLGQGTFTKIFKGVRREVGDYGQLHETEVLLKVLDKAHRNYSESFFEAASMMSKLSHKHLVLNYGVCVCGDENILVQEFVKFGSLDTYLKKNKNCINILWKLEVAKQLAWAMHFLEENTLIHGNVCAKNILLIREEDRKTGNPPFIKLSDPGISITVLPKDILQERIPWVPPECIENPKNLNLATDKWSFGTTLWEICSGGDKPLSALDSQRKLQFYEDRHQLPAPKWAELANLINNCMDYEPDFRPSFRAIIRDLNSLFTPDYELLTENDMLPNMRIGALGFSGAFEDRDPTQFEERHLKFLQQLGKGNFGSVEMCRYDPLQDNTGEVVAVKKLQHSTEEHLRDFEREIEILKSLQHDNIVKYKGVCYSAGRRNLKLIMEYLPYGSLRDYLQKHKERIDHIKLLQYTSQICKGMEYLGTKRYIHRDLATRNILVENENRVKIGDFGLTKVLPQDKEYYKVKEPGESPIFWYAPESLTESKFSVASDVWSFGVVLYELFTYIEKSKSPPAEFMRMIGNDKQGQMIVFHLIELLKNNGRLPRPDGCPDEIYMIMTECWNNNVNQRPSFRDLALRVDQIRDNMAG

IC50 (JAK2; JAK2 Kinase Inhibition) [nM]	IC50 (ALK; ALK Kinase Inhibition) [nM]	IC50 (JAK2; [1]) [nM]	IC50 (ALK; [2]) [nM]	Structure (SMILES)
< 100	< 100			COc1ccccc1-c1ccc2cnc(Nc3ccc(N4CCC(CN5CCN(C)CC5)CC4)cc3)nn12 [Example 451, [7-(2-Methoxy-phenyl)-pyrrolo[2,1-f][1,2,4]triazin-2-yl]-{4-[4-(4-methyl-piperazin-1-ylmethyl)-piperidin-1-yl]-phenyl}-amine]
< 100	1000 to 10000			COc1cccc(Nc2ncc3ccc(-c4cc(Cl)ccc4OC)n3n2)c1 [Example 144, [7-(5-Chloro-2-methoxy-phenyl)-pyrrolo[2,1-f][1,2,4]triazin-2-yl]-(3-methoxy-phenyl)-amine]
		< 100	100 to 1000	CN1CCN(C(=O)C2CCN(c3ccc(Nc4ncc5ccc(-c6cnn(C)c6)n5n4)cc3)CC2)CC1 [Example 1188, (4-Methyl-piperazin-1-yl)-(1-{4-[7-(1-methyl-1H-pyrazol-4-yl)-pyrrolo[2,1-f][1,2,4]triazin-2-ylamino]-phenyl}-piperidin-4-yl)-methanone]
		< 100	100 to 1000	CN1CCC(c2ccc(Nc3ncc4ccc(-c5ccn(C)n5)n4n3)cc2)CC1 [Example 954, [4-(1-Methyl-piperidin-4-yl)-phenyl]-[7-(1-methyl-1H-pyrazol-3-yl)-pyrrolo[2,1-f][1,2,4]triazin-2-yl]-amine]
< 100	1000 to 10000			CS(=O)(=O)c1cccc(-c2ccc3cnc(Nc4cccc(N5CCOCC5)c4)nn23)c1 [Example 184, [7-(3-Methanesulfonyl-phenyl)-pyrrolo[2,1-f][1,2,4]triazin-2-yl]-(3-morpholin-4-yl-phenyl)-amine]
< 100	< 100			COc1ccc(Cl)cc1-c1ccc2cnc(Nc3ccc(N4CCCC(N5CCN(C)CC5)C4)cc3)nn12 (centres unmarked) [Example 349, [7-(5-Chloro-2-methoxy-phenyl)-pyrrolo[2,1-f][1,2,4]triazin-2-yl]-{4-[3-(4-methyl-piperazin-1-yl)-piperidin-1-yl]-phenyl}-amine]
		100 to 1000	< 100	COc1cc(C2CCCN(CC(N)=O)C2)ccc1Nc1ncc2ccc(-c3ccccc3N(C)S(C)(=O)=O)n2n1 (racemic) [Example 861, (±)-2-[3-(4-{7-[2-(Methanesulfonyl-methyl-amino)-phenyl]-pyrrolo[2,1-f][1,2,4]triazin-2-ylamino}-3-methoxy-phenyl)-piperidin-1-yl]-acetamide]
		100 to 1000	< 100	COc1cc2c(cc1Nc1ncc3ccc(-c4ccccc4N(C)S(C)(=O)=O)n3n1)CN(C)C2 [Example 809, N-{2-[2-(6-Methoxy-2-methyl-2,3-dihydro-1H-isoindol-5-ylamino)-pyrrolo[2,1-f][1,2,4]triazin-7-yl]-phenyl}-N-methyl-methanesulfonamide]
		100 to 1000	100 to 1000	COc1cc(C2(O)CCN(C(=O)OC(C)(C)C)CC2)ccc1Nc1ncc2ccc(-c3ccccc3N(C)S(C)(=O)=O)n2n1 [Example 741, 4-Hydroxy-4-(4-{7-[2-(methanesulfonyl-methyl-amino)-phenyl]-pyrrolo[2,1-f][1,2,4]triazin-2-ylamino}-3-methoxy-phenyl)-piperidine-1-carboxylic acid tert-butyl ester]
		< 100	< 100	CC(C)(C)NS(=O)(=O)c1cccc(-c2ccc3cnc(Nc4ccc(C5CCNCC5O)cc4)nn23)c1 (centres unmarked) [Example 1014, N-tert-Butyl-3-{2-[4-(3-hydroxy-piperidin-4-yl)-phenylamino]-pyrrolo[2,1-f][1,2,4]triazin-7-yl}-benzenesulfonamide]
		< 100	< 100	COc1cc(N2CCN(C[C@H](C)O)CC2)ccc1Nc1ncc2ccc(-c3ccccc3OC)n2n1 [Example 753, (S)-1-(4-{3-Methoxy-4-[7-(2-methoxy-phenyl)-pyrrolo[2,1-f][1,2,4]triazin-2-ylamino]-phenyl}-piperazin-1-yl)-propan-2-ol]
		< 100	100 to 1000	COc1ccc(-c2ccc3cnc(Nc4ccc(C5CCN(CC(N)=O)CC5)c(NC(C)=O)c4)nn23)cn1 [Example 939, 2-(4-{2-Acetylamino-4-[7-(6-methoxy-pyridin-3-yl)-pyrrolo[2,1-f][1,2,4]triazin-2-ylamino]-phenyl}-piperidin-1-yl)-acetamide]
		< 100	100 to 1000	CN1CCC(c2ccc(Nc3ncc4ccc(-c5cnn(CCC#N)c5)n4n3)cc2)CC1 [Example 932, 3-(4-{2-[4-(1-Methyl-piperidin-4-yl)-phenylamino]-pyrrolo[2,1-f][1,2,4]triazin-7-yl}-pyrazol-1-yl)-propionitrile]
		< 100	100 to 1000	CC(C)(C)NS(=O)(=O)c1cccc(-c2ccc3cnc(Nc4ccc(C5CCC(N6CCCC6)CC5)cc4)nn23)c1 (centres unmarked) [Example 566, N-tert-Butyl-3-{2-[4-(4-pyrrolidin-1-yl-cyclohexyl)-phenylamino]-pyrrolo[2,1-f][1,2,4]triazin-7-yl}-benzenesulfonamide]
< 100	1000 to 10000			CN1C(=O)Cc2cc(Nc3ncc4ccc(-c5cccnc5)n4n3)ccc21 [Example 374, 1-Methyl-5-(7-pyridin-3-yl-pyrrolo[2,1-f][1,2,4]triazin-2-ylamino)-1,3-dihydro-indol-2-one]
		< 100	100 to 1000	NC(=O)CN1CCC(c2ccc(Nc3ncc4ccc(-c5cccc(CO)c5)n4n3)cc2)CC1 [Example 1065, 2-(4-{4-[7-(3-Hydroxymethyl-phenyl)-pyrrolo[2,1-f][1,2,4]triazin-2-ylamino]-phenyl}-piperidin-1-yl)-acetamide]
< 100	100 to 1000			COc1ccccc1-c1ccc2cnc(Nc3ccc(N4CCCC4)cc3)nn12 [Example 169, [7-(2-Methoxy-phenyl)-pyrrolo[2,1-f][1,2,4]triazin-2-yl]-(4-pyrrolidin-1-yl-phenyl)-amine]
< 100	100 to 1000			CN1CCN(C(=O)C(F)(F)c2ccc(Nc3ncc4ccc(-c5cccc(S(=O)(=O)NC(C)(C)C)c5)n4n3)cc2)CC1 [Example 1515, N-tert-Butyl-3-(2-{4-[1,1-difluoro-2-(4-methyl-piperazin-1-yl)-2-oxo-ethyl]-phenylamino}-pyrrolo[2,1-f][1,2,4]triazin-7-yl)-benzenesulfonamide]
< 100	100 to 1000			Clc1cccc(-c2ccc3cnc(Nc4ccc(N5CCCC(N6CCOCC6)C5)cc4)nn23)c1 (centres unmarked) [Example 345, [7-(3-Chloro-phenyl)-pyrrolo[2,1-f][1,2,4]triazin-2-yl]-[4-(3-morpholin-4-yl-piperidin-1-yl)-phenyl]-amine]
		100 to 1000	< 100	COc1cc2c(cc1Nc1ncc3ccc(-c4cccc(S(=O)(=O)NC(C)(C)C)c4)n3n1)CCN(C[C@@H](C)O)CC2 [Example 700]
		< 100	< 100	Cc1cc(Nc2ncc3ccc(-c4cccc(S(C)(=O)=O)c4)n3n2)ccc1C1CCN(C)CC1 [Example 946, [7-(3-Methanesulfonyl-phenyl)-pyrrolo[2,1-f][1,2,4]triazin-2-yl]-[3-methyl-4-(1-methyl-piperidin-4-yl)-phenyl]-amine]
< 100	100 to 1000			CC(=O)Nc1ccccc1-c1ccc2cnc(Nc3ccc(N4CCC(N5CCOCC5)CC4)cc3)nn12 [Example 454, N-(2-{2-[4-(4-Morpholin-4-yl-piperidin-1-yl)-phenylamino]-pyrrolo[2,1-f][1,2,4]triazin-7-yl}-phenyl)-acetamide]
